This is an account of results in patent US20150342908A1, “SECOAPORPHINE ALKALOID DERIVATIVE FOR ACTIVATING AMP-DEPENDENT PROTEIN KINASE” (ZIH YUAN TANG Biotechnology Co., Ltd, priority 2014, published 2015).

This experiment concerns AMPK. As to the kind of experiment: AMPK phosphorylation (Thr172) western blot in C2C12 myocytes. The class given is cell-based, mouse. The method, then:
C2C12 skeletal myoblast cell line was purchased from the Food Industry Research and Development Institute (Hsinchu, Taiwan). The C2C12 cell line was a cell line obtained from culturing the leg skeletal muscle of adult C3H mice in a cell incubator under […], 5% CO2, and 37° C. The cells were cultured in a DMEM medium (Gibco/Invitrogen, Carlsbad, Calif.) containing 4.5 mg/mL glucose, 10% fetal bovine serum (FBS; Gibco/Invitrogen, Carlsbad, Calif.), and an antibiotic solution (with final concentrations of penicillin=100 IU/mL and streptomycin=100 μg/mL). When the C2C12 myoblast cells have proliferated to cover seven-tenths of the area in the petri dish, the fetal bovine serum was replaced by 2% horse serum (Gibco/Invitrogen, Carlsbad, Calif.) so as to induce the C2C12 myoblast cells to become the multi-nuclei myocytes. The C2C12 myoblast cells differentiated into myocytes in 4 days, and the culture medium of the cells was replaced with no-serum DMEM 24 hours before the experiments so as to reduce metabolism of the cells. The C2C12 myocytes were treated respectively with 1 μM, 3 μM and 10 μM N-allylsecoboldine for 5 and 15 minutes. Then the C2C12 myocytes were rinsed with PBS buffer solution, and RIPA buffer solution containing protease inhibitors (20 mM Tris-HCl (pH 7.4), 100 mM NaCl, 1 mM EDTA, 1 mM EGTA, 0.1% SDS, 0.5% sodium deoxycholate, 1% NP-40, and 100× protease inhibitor cocktail) was added into the cells. The cells were collected and centrifuged on ice. Then, the concentrations of the supernatant samples were adjusted to be the same. The supernatant samples were put through vertical electrophoresis isolation with 8% SDS-PAGE, and the isolated proteins were transferred onto a PVDF blotting membrane. After blotting was completed, the PVDF blotting membrane was removed and blocked for 1 hour under room temperature with a blocking buffer of TBST (Tris-buffered saline with Tween-20) with 5% non-fat milk. Then, the PVDF blotting membrane was placed into a 5% BSA and TBST solution containing the primary monoclonal antibodies Phospho-AMPKα (Thr172) (Cell Signaling) (1:1000) and AMPKα (Thr172) (Cell Signaling) (1:1000), respectively, and the primary immunoblotting reaction was performed under 4° C. Then, the PVDF blotting membrane was rinsed 3 times with TBST, and a TBST solution containing the secondary antibody goat anti-rabbit IgG (Perkin Elmer) (1:10000) was added to perform the secondary reaction for one hour under room temperature. Finally, the membrane was rinsed 3 times with TBST before ECL (enhanced chemiluminescence) was added to present color.

Regarding `C=CCN(C)CCc1cc(O)c(OC)c2c1ccc1cc(O)c(OC)cc12` [N-allylsecoboldine], the “AMPK phosphorylation, times of that in the control cells” value (“AMPK phosphorylation, times of that” below) (3 μM, 5 minutes) was found to be 2.34 times; the “AMPK phosphorylation, times of that” value (3 μM, 15 minutes) is reported as 1.38 times; the “AMPK phosphorylation, times of that” value (10 μM, 5 minutes) stood at 2.51 times; the “AMPK phosphorylation, times of that” value (10 μM, 15 minutes) was determined as 2.79 times. The “effect in AMPK activation (in words)” value (C2C12 cells, overall conclusion) was “excellent effect in AMPK activation”.
